According to patent US10870647B2, “Imidazopyridine derivative, method for preparing same, and pharmaceutical composition containing same as active ingredient for preventing or treating cancer” (DAEGU-GYEONGBUK MEDICAL INNOVATION FOUNDATION, priority 2016, dated 2020):

Experiments:
Test in all cases: Kinase selectivity, scanMAX Kinase assay panel (DiscoverX), % control at 1 uM
Assay type in all cases: binding
[1] = biological target: T1, scanMAX Kinase assay panel (Homo sapiens, UniProt P04049); conditions: RAF1; 1 uM; read-out: Percent Control (%)
T1 construct: purchased DiscoverX
T1 sequence (P04049 whole entry): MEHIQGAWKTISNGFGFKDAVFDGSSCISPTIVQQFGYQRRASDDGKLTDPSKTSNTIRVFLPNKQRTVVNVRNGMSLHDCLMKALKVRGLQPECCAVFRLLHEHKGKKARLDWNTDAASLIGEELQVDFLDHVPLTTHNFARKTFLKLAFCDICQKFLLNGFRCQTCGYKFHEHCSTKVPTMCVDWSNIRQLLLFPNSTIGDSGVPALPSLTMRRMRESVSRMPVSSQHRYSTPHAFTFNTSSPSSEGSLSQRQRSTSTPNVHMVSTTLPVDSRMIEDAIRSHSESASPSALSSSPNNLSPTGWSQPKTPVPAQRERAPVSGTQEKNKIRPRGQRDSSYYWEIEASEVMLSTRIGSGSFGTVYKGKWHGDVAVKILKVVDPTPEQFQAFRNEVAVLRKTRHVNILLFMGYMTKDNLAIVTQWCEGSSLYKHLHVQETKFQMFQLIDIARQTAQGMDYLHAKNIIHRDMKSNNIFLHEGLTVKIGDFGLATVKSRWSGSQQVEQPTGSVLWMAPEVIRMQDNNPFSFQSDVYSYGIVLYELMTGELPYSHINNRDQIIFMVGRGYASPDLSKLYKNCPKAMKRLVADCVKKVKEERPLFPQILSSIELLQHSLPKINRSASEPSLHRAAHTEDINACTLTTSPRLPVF
Summary of the method: (§1)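 Binding across the scanMAX kinase panel was tested at 1 uM compound. % control = (compound − positive control)/(negative control − positive control) × 100; below 35 counted as active.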

[2] = biological target: T2, scanMAX Kinase assay panel (Homo sapiens, UniProt P36888, D835Y); conditions: FLT3 (D835Y); 1 uM; read-out: Percent Control (%)
T2 construct: purchased DiscoverX
T2 sequence (P36888 27-993 D835Y): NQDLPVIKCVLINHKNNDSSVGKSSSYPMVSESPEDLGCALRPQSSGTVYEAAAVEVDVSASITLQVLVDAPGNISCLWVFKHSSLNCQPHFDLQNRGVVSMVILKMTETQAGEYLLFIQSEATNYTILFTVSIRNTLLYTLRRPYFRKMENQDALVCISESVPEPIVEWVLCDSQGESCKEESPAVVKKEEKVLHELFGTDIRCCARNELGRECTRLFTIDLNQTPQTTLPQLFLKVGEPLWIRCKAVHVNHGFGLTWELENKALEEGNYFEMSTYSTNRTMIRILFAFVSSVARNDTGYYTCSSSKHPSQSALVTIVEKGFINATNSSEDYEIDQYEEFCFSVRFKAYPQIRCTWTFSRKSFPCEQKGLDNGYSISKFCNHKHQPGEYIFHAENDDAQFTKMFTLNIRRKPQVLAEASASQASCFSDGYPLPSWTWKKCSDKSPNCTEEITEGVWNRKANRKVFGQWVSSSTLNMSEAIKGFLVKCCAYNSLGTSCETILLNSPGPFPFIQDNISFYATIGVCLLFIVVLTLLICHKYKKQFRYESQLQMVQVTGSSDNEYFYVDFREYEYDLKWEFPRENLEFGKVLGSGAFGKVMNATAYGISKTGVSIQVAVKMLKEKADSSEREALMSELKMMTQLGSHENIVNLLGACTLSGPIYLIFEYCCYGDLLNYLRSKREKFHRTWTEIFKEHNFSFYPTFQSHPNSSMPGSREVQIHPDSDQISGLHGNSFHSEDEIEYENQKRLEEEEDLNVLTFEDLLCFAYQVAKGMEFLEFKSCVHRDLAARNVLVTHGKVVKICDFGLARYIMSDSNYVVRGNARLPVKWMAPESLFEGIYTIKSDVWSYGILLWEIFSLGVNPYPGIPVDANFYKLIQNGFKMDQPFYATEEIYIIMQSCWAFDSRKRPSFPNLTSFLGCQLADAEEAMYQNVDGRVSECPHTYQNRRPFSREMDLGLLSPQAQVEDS
Summary of the method: as §1

[3] = biological target: T3, scanMAX Kinase assay panel (Homo sapiens, UniProt Q8IW41); conditions: MAPKAPK5; 1 uM; read-out: Percent Control (%)
T3 construct: purchased DiscoverX
T3 sequence (Q8IW41 1-473): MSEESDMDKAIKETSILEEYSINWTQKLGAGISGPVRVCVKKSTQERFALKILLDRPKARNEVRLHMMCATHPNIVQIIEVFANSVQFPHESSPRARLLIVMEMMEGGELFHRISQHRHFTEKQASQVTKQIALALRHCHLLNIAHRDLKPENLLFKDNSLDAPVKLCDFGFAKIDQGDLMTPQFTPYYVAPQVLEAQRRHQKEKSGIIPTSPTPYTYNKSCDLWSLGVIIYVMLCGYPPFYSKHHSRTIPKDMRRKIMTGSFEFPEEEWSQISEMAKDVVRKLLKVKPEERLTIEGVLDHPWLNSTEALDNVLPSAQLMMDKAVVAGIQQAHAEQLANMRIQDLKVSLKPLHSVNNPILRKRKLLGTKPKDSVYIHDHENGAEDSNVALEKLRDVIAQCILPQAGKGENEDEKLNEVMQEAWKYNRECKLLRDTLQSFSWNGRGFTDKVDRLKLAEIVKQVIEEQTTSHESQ
Summary of the method: as §1

[4] = biological target: T4, scanMAX Kinase assay panel (Homo sapiens, UniProt Q8NI60); conditions: ADCK3; 1 uM; read-out: Percent Control (%)
T4 construct: purchased DiscoverX
T4 sequence (Q8NI60 163-647): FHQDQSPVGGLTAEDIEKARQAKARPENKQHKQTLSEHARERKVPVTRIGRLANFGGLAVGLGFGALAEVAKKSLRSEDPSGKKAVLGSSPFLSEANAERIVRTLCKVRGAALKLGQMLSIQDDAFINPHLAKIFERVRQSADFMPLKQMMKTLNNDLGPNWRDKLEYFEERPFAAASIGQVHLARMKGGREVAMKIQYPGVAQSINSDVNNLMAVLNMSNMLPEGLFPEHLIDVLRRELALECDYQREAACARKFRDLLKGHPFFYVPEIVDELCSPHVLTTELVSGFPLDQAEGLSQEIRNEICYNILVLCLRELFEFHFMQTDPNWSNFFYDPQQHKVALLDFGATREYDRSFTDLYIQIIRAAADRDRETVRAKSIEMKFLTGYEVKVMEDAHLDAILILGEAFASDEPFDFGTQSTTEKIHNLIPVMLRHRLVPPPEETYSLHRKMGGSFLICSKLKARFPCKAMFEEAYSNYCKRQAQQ
Summary of the method: as §1

[5] = biological target: T5, scanMAX Kinase assay panel (Homo sapiens, UniProt Q96D53); conditions: ADCK4; 1 uM; read-out: Percent Control (%)
T5 construct: purchased DiscoverX
T5 sequence (Q96D53 1-544): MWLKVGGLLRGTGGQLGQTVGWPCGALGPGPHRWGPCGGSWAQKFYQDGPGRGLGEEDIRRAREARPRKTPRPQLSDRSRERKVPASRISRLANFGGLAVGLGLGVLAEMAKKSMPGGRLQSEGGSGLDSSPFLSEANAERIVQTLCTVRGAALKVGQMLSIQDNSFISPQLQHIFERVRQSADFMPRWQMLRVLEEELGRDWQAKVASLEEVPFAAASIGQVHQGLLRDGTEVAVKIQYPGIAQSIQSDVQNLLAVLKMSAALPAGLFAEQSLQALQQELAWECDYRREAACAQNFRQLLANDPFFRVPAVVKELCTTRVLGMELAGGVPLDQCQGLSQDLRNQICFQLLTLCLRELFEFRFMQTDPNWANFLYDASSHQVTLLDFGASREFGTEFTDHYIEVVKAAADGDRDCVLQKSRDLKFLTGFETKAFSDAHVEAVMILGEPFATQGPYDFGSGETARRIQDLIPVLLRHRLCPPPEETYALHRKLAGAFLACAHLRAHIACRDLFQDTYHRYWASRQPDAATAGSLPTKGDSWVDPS
Summary of the method: as §1

[6] = test system: scanMAX Kinase assay panel; conditions: 1 uM
Summary of the method: as §1

Structure (SMILES) | remaining binding at 1 µM [1] [%] | remaining binding at 1 µM [2] [%] | remaining binding at 1 µM [3] [%] | remaining binding at 1 µM [4] [%] | remaining binding at 1 µM [5] [%] | Percent Control (%) ([6]; EGFR (L747-E749del, A750P)) | Percent Control (%) ([6]; EGFR (L747-S752del, P753S)) | Percent Control (%) ([6]; EGFR (L747-T751del, Sins)) | Percent Control (%) ([6]; FLT3 (ITD)) | Percent Control (%) ([6]; FLT3 (ITD, D835V)) | Percent Control (%) ([6]; FLT3 (ITD, F691L))
Cc1ccc(C(=O)Nc2ccc(CN3CCN(C)CC3)c(C(F)(F)F)c2)cc1C#Cc1cnc2c(Nc3cnn(C)c3)cccn12 [Example 1, 4-methyl-3-((8-((1-methyl-1H-pyrazol-4-yl)amino)imidazo[1,2-a]pyridin-3-yl)ethynyl)-N-(4-((4-methylpiperazin-1-yl)methyl)-3-(trifluoromethyl)phenyl)benzamide] | 11 | 5 | 100 | 100 | 88 | 3 | 1 | 2 | 1 | 20 | 2
Cc1cn(-c2cc(NC(=O)c3ccc(C)c(C#Cc4cnc5c(Nc6cnn(C)c6)cccn45)c3)cc(C(F)(F)F)c2)cn1 [Example 12, 4-methyl-N-(3-(4-methyl-1H-imidazol-1-yl)-5-(trifluoromethyl)phenyl)-3-((8-((1-methyl-1H-pyrazol-4-yl)amino)imidazo[1,2-a]pyridin-3-yl)ethynyl)benzamide] | 42 | 14 | 100 | 93 | 95 | 5 | 6 | 6 | 4 | 100 | 45
Cc1ccc(NC(=O)C2(C(=O)Nc3ccc(F)cc3)CC2)cc1C#Cc1cnc2c(Nc3cnn(C(C)C)c3)cccn12 [Example 78] | 100 | 79 | 100 | 100 | 100 | 100 | 87 | 100 | 71 | 35 | 31
